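Five concentrations, 48 hours, 96-well plates. Here, GI50 denotes the concentration required for 50% inhibition of growth.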 Activity calls are given as the source filed them. Rule as the data show it: active = GI50 up to about 1.1 µM and inactive = higher.
Key:
Assay in all cases: DTP human tumour cell line panel, 48 h
A498 = test system: A498
HOP-62 = test system: HOP-62
HOP-92 = test system: HOP-92
LOX IMVI = test system: LOX IMVI
MDA-MB-435 = test system: MDA-MB-435
MOLT-4 = test system: MOLT-4
NCI-H23 = test system: NCI-H23
PC-3 = test system: PC-3
RPMI-8226 = test system: RPMI-8226
RXF 393 = test system: RXF 393
SF-268 = test system: SF-268
SF-295 = test system: SF-295
SK-MEL-28 = test system: SK-MEL-28
SK-OV-3 = test system: SK-OV-3
SN12C = test system: SN12C
SR = test system: SR
TK-10 = test system: TK-10
U-251 = test system: U-251
IGROV-1 = test system: IGROV-1
NCI/ADR-RES = test system: NCI/ADR-RES

Measured: GI50

COc1ccc2nc3cc([N+](=O)[O-])ccc3c(Nc3ccc(S(=O)(=O)N=C(N)N)cc3)c2c1
inactive: A498 > 100 µM | HOP-62 27.2 µM | HOP-92 11.5 µM | LOX IMVI 28.4 µM | MDA-MB-435 39.9 µM | MOLT-4 2.72 µM | NCI-H23 26.8 µM | PC-3 12 µM | RPMI-8226 10.5 µM | RXF 393 40.1 µM | SF-268 28 µM | SF-295 47.1 µM | SK-MEL-28 > 100 µM | SK-OV-3 58.5 µM | SN12C 48.1 µM | SR 1.32 µM | TK-10 47.2 µM | U-251 30.5 µM

CC1CN=C(N(C(=O)Nc2ccccc2)c2ccccc2)S1 (stereo not drawn)
inactive: A498 10.6 µM | HOP-62 39.9 µM | IGROV-1 42.6 µM | LOX IMVI 18.8 µM | MOLT-4 19 µM | NCI-H23 35.4 µM | NCI/ADR-RES 22 µM | PC-3 36.6 µM | RPMI-8226 26 µM | SF-268 20.6 µM | SF-295 37.9 µM | SK-MEL-28 13.9 µM | SK-OV-3 > 100 µM | SN12C 25.2 µM | SR 27.2 µM | TK-10 20.6 µM | U-251 37.7 µM

O=C1CC(=O)N(CCc2ccccc2)S(=O)(=O)N1CCc1ccccc1
inactive: A498 16.6 µM | HOP-62 36.2 µM | HOP-92 16.6 µM | IGROV-1 20.1 µM | LOX IMVI 1.91 µM | MOLT-4 20.3 µM | NCI-H23 25 µM | RPMI-8226 24.4 µM | RXF 393 34.1 µM | SF-268 29.1 µM | SF-295 16.9 µM | SK-MEL-28 28.1 µM | SK-OV-3 24.3 µM | SN12C 33 µM | SR 22.7 µM | TK-10 36.6 µM | U-251 16.9 µM

N#C/C(=C/NC(=S)Nc1ccc(S(N)(=O)=O)cc1)C(N)=O
inactive: A498 > 100 µM | HOP-62 > 100 µM | HOP-92 > 100 µM | IGROV-1 > 100 µM | MDA-MB-435 > 100 µM | MOLT-4 > 100 µM | NCI-H23 > 100 µM | PC-3 > 100 µM | RPMI-8226 > 100 µM | RXF 393 > 100 µM | SF-268 > 100 µM | SF-295 > 100 µM | SK-MEL-28 > 100 µM | SK-OV-3 > 100 µM | SN12C > 100 µM | SR > 100 µM | TK-10 > 100 µM | U-251 > 100 µM

CCCCC(C)C(OC(=O)CC(CC(=O)O)C(=O)O)C(CC(C)CC(O)CCCCC(O)CC(O)C(C)N)OC(=O)CC(CC(=O)O)C(=O)O (stereo not drawn)
inactive: A498 > 100 µM | HOP-62 > 100 µM | HOP-92 > 65.8 µM | IGROV-1 > 100 µM | LOX IMVI > 100 µM | MOLT-4 > 100 µM | NCI-H23 > 100 µM | RPMI-8226 > 100 µM | RXF 393 > 48.8 µM | SF-268 > 100 µM | SF-295 > 100 µM | SK-MEL-28 > 100 µM | SK-OV-3 > 100 µM | SN12C > 100 µM | SR > 100 µM | TK-10 > 100 µM | U-251 > 100 µM

COc1cc(CCC(=O)NS(=O)(=O)c2ccccc2)cc(OC)c1OC
inactive: A498 > 100 µM | HOP-62 > 100 µM | HOP-92 > 100 µM | IGROV-1 > 100 µM | LOX IMVI > 100 µM | MOLT-4 > 100 µM | NCI-H23 > 100 µM | RPMI-8226 > 100 µM | RXF 393 > 100 µM | SF-268 > 100 µM | SF-295 > 100 µM | SK-MEL-28 > 100 µM | SK-OV-3 > 100 µM | SN12C > 100 µM | SR > 100 µM | TK-10 > 100 µM | U-251 > 100 µM

O=c1ncccn1[C@@H]1O[C@H](CO)[C@H](O)C1O (stereo partly drawn)
inactive: A498 > 100 µM | HOP-62 68.2 µM | HOP-92 > 71.3 µM | IGROV-1 > 100 µM | LOX IMVI > 61.8 µM | MOLT-4 61.7 µM | NCI-H23 > 100 µM | RPMI-8226 > 74.5 µM | RXF 393 80.9 µM | SF-268 71.8 µM | SF-295 > 100 µM | SK-MEL-28 > 100 µM | SK-OV-3 > 100 µM | SN12C > 77.1 µM | SR 43.6 µM | TK-10 > 100 µM | U-251 > 100 µM

CCOC(=O)c1ccc(NC(=O)O/N=C(/Cl)CCl)cc1
inactive: A498 15.2 µM | HOP-62 > 100 µM | IGROV-1 > 100 µM | LOX IMVI 50.1 µM | MOLT-4 33.6 µM | NCI-H23 78.5 µM | NCI/ADR-RES 24.5 µM | PC-3 33.6 µM | RPMI-8226 47.2 µM | SF-268 47.1 µM | SF-295 30.8 µM | SK-MEL-28 17.6 µM | SK-OV-3 75.3 µM | SN12C 84.9 µM | SR 27.2 µM | TK-10 28.4 µM | U-251 39.4 µM

From ChEMBL document CHEMBL1201862, “PubChem BioAssay data set” (2004)
